Data published in patent publication US12077503B2, “Substituted cyclic amides and their use as herbicides” (FMC CORPORATION, priority 2015, dated 2024).

Legend:
Assay type in all cases: in vivo
[1] = system: pigweed (Amaranthus retroflexus); experiment: Test A postemergence; settings: postemergence; for Pigweed plant response rating: 125 g ai/ha, visual injury rating on 0 to 100 scale (0 no effect, 100 complete control), approx. 10 d; for Plant response rating, Pigweed: 500 g ai/ha, 0 to 100 scale, 0 no effect, 100 complete control
Description: (§1) Seeds of plant species selected from barnyardgrass (Echinochloa crus-galli), Kochia (Kochia scoparia), ragweed (common ragweed, Ambrosia elatior), ryegrass, Italian (Italian ryegrass, Lolium multiflorum), crabgrass, large (Digitaria sanguinalis), giant foxtail (Setaria faberii), green foxtail (Setaria viridis), morningglory (Ipomoea spp.), pigweed (Amaranthus retroflexus), velvetleaf (Abutilon theophrasti), wheat (Triticum aestivum), and corn (Zea mays) were planted into a blend of loam soil and sand and treated preemergence with a directed soil spray using test chemicals formulated in anon-phytotoxic solvent mixture which included a surfactant.
(§2) At the same time, plants selected from these crop and weed species and also blackgrass (Alopecurus myosuroides), and Galium (catchweed bedstraw, Galium aparine) were planted in pots containing the same blend of loam soil and sand and treated with postemergence applications of test chemicals formulated in the same manner. Plants ranged in height from 2 to 10 cm and were in the one- to two-leaf stage for the postemergence treatment. Treated plants and untreated controls were maintained in a greenhouse for approximately 10 d, after which time all treated plants were compared to untreated controls and visually evaluated for injury. Plant response ratings, summarized in Table A, are based on a 0 to 100 scale where 0 is no effect and 100 is complete control. A dash (-) response means no test result.

Kochia (Kochia scoparia) [2] = experiment: Test A postemergence; settings: postemergence; for Kochia plant response rating: 125 g ai/ha, visual injury rating on 0 to 100 scale (0 no effect, 100 complete control), approx. 10 d; for Plant response rating, Kochia: 500 g ai/ha, 0 to 100 scale, 0 no effect, 100 complete control
Description: as §1, §2

[3] = system: Galium (catchweed bedstraw, Galium aparine); experiment: Test A postemergence; settings: postemergence; for Galium plant response rating: 125 g ai/ha, visual injury rating on 0 to 100 scale (0 no effect, 100 complete control), approx. 10 d; for Plant response rating, Galium: 500 g ai/ha, 0 to 100 scale, 0 no effect, 100 complete control
Description: as §1, §2

corn (Zea mays) = experiment: Test A postemergence; settings: postemergence; for Corn plant response rating: 125 g ai/ha, visual injury rating on 0 to 100 scale (0 no effect, 100 complete control), approx. 10 d; for Plant response rating, Corn: 500 g ai/ha, 0 to 100 scale, 0 no effect, 100 complete control
Description: as §1, §2

[4] = system: ragweed (common ragweed, Ambrosia elatior); experiment: Test A postemergence; settings: postemergence; for Ragweed plant response rating: 125 g ai/ha, visual injury rating on 0 to 100 scale (0 no effect, 100 complete control), approx. 10 d; for Plant response rating, Ragweed: 500 g ai/ha, 0 to 100 scale, 0 no effect, 100 complete control
Description: as §1, §2

[5] = system: barnyardgrass (Echinochloa crus-galli); experiment: Test A postemergence; settings: postemergence; for Barnyardgrass plant response rating: 125 g ai/ha, visual injury rating on 0 to 100 scale (0 no effect, 100 complete control), approx. 10 d; for Plant response rating, Barnyardgrass: 500 g ai/ha, 0 to 100 scale, 0 no effect, 100 complete control
Description: as §1, §2

[6] = system: ryegrass, Italian (Italian ryegrass, Lolium multiflorum); experiment: Test A postemergence; settings: postemergence; for Ryegrass, Italian plant response rating: 125 g ai/ha, visual injury rating on 0 to 100 scale (0 no effect, 100 complete control), approx. 10 d; for Plant response rating, Ryegrass, Italian: 500 g ai/ha, 0 to 100 scale, 0 no effect, 100 complete control
Description: as §1, §2

[7] = system: giant foxtail (Setaria faberii); experiment: Test A postemergence; settings: postemergence; for Foxtail, Giant plant response rating: 125 g ai/ha, visual injury rating on 0 to 100 scale (0 no effect, 100 complete control), approx. 10 d; for Plant response rating, Foxtail, Giant: 500 g ai/ha, 0 to 100 scale, 0 no effect, 100 complete control
Description: as §1, §2

[8] = system: wheat (Triticum aestivum); experiment: Test A postemergence; settings: postemergence; for Wheat plant response rating: 125 g ai/ha, visual injury rating on 0 to 100 scale (0 no effect, 100 complete control), approx. 10 d; for Plant response rating, Wheat: 500 g ai/ha, 0 to 100 scale, 0 no effect, 100 complete control
Description: as §1, §2

[9] = system: blackgrass (Alopecurus myosuroides); experiment: Test A postemergence; settings: postemergence; for Blackgrass plant response rating: 125 g ai/ha, visual injury rating on 0 to 100 scale (0 no effect, 100 complete control), approx. 10 d; for Plant response rating, Blackgrass: 500 g ai/ha, 0 to 100 scale, 0 no effect, 100 complete control
Description: as §1, §2

[10] = system: pigweed (Amaranthus retroflexus); experiment: Test A preemergence; settings: for Plant response rating, Pigweed: 125 g ai/ha, preemergence, 0 to 100 scale (0 no effect, 100 complete control); for Pigweed plant response rating (0 to 100 scale, 0 is no effect, 100 is complete control): Preemergence, 500 g ai/ha, visual injury approx. 10 d
Description: as §1, §2

Kochia (Kochia scoparia) [11] = experiment: Test A preemergence; settings: for Plant response rating, Kochia: 125 g ai/ha, preemergence, 0 to 100 scale (0 no effect, 100 complete control); for Kochia plant response rating (0 to 100 scale, 0 is no effect, 100 is complete control): Preemergence, 500 g ai/ha, visual injury approx. 10 d
Description: as §1, §2

[12] = system: ragweed (common ragweed, Ambrosia elatior); experiment: Test A preemergence; settings: for Plant response rating, Ragweed: 125 g ai/ha, preemergence, 0 to 100 scale (0 no effect, 100 complete control); for Ragweed plant response rating (0 to 100 scale, 0 is no effect, 100 is complete control): Preemergence, 500 g ai/ha, visual injury approx. 10 d
Description: as §1, §2

[13] = system: barnyardgrass (Echinochloa crus-galli); experiment: Test A preemergence; settings: for Plant response rating, Barnyardgrass: 125 g ai/ha, preemergence, 0 to 100 scale (0 no effect, 100 complete control); for Barnyardgrass plant response rating (0 to 100 scale, 0 is no effect, 100 is complete control): Preemergence, 500 g ai/ha, visual injury approx. 10 d
Description: as §1, §2

[14] = system: ryegrass, Italian (Italian ryegrass, Lolium multiflorum); experiment: Test A preemergence; settings: for Plant response rating, Ryegrass, Italian: 125 g ai/ha, preemergence, 0 to 100 scale (0 no effect, 100 complete control); for Ryegrass, Italian plant response rating (0 to 100 scale, 0 is no effect, 100 is complete control): Preemergence, 500 g ai/ha, visual injury approx. 10 d
Description: as §1, §2

[15] = system: giant foxtail (Setaria faberii); experiment: Test A preemergence; settings: for Plant response rating, Foxtail, Giant: 125 g ai/ha, preemergence, 0 to 100 scale (0 no effect, 100 complete control); for Foxtail, Giant plant response rating (0 to 100 scale, 0 is no effect, 100 is complete control): Preemergence, 500 g ai/ha, visual injury approx. 10 d
Description: as §1, §2

[16] = system: ducksalad (Heteranthera limosa); experiment: Test B flooded paddy test; settings: Flood, 250 g ai/ha; 0 to 100 scale where 0 is no effect and 100 is complete control; 13 to 15 d
Description: (§3) Plant species in the flooded paddy test selected from rice (Oryra sativa), sedge, umbrella (small-flower umbrella sedge, Cyperus difformis), ducksalad (Heteranthera limosa), and barnyardgrass (Echinochloa crus-galli) were grown to the 2-leaf stage for testing. At time of treatment, test pots were flooded to 3 cm above the soil surface, treated by application of test compounds directly to the paddy water, and then maintained at that water depth for the duration of the test. Treated plants and controls were maintained in a greenhouse for 13 to 15 d, after which time all species were compared to controls and visually evaluated. Plant response ratings, summarized in Table B, are based on a scale of 0 to 100 where 0 is no effect and 100 is complete control. A dash (-) response means no test result.

rice (Oryra sativa) = experiment: Test B flooded paddy test; settings: Flood, 250 g ai/ha; 0 to 100 scale where 0 is no effect and 100 is complete control; 13 to 15 d
Description: as §3

[17] = system: barnyardgrass (Echinochloa crus-galli); experiment: Test B flooded paddy test; settings: Flood, 250 g ai/ha; 0 to 100 scale where 0 is no effect and 100 is complete control; 13 to 15 d
Description: as §3

[18] = system: sedge, umbrella (small-flower umbrella sedge, Cyperus difformis); experiment: Test B flooded paddy test; settings: Flood, 250 g ai/ha; 0 to 100 scale where 0 is no effect and 100 is complete control; 13 to 15 d
Description: as §3

| Structure (SMILES) | Pigweed plant response rating [1] | Plant response rating, Pigweed [1] | Kochia plant response rating (Kochia (Kochia scoparia) [2]) | Plant response rating, Kochia (Kochia (Kochia scoparia) [2]) | Galium plant response rating [3] | Plant response rating, Galium [3] | Corn plant response rating (corn (Zea mays)) | Plant response rating, Corn (corn (Zea mays)) | Ragweed plant response rating [4] | Plant response rating, Ragweed [4] | Barnyardgrass plant response rating [5] | Plant response rating, Barnyardgrass [5] | Ryegrass, Italian plant response rating [6] | Plant response rating, Ryegrass, Italian [6] | Foxtail, Giant plant response rating [7] | Plant response rating, Foxtail, Giant [7] | Wheat plant response rating [8] | Plant response rating, Wheat [8] | Blackgrass plant response rating [9] | Plant response rating, Blackgrass [9] | other results |
| --- | --- | --- | --- | --- | --- | --- | --- | --- | --- | --- | --- | --- | --- | --- | --- | --- | --- | --- | --- | --- | --- |
| Cc1ccc(C2CNC(=O)C2C(=O)Nc2ccc(F)c(C)c2F)cc1F (stereo not drawn) [Compound 462] | 0 | 0 | 0 | 0 | 0 | 10 | 0 | 0 | 0 | 0 | 70 | 80 | 0 | 0 | 60 | 70 | 0 | 0 | 20 | 40 | Plant response rating, Pigweed [10]: 0; Pigweed plant response rating (0 to 100 scale, 0 is no effect, 100 is complete control) [10]: 0; Plant response rating, Kochia (Kochia (Kochia scoparia) [11]): 30; Kochia plant response rating (0 to 100 scale, 0 is no effect, 100 is complete control) (Kochia (Kochia scoparia) [11]): 70; Plant response rating, Ragweed [12]: 10; Ragweed plant response rating (0 to 100 scale, 0 is no effect, 100 is complete control) [12]: 50; Plant response rating, Barnyardgrass [13]: 80; Barnyardgrass plant response rating (0 to 100 scale, 0 is no effect, 100 is complete control) [13]: 90; Plant response rating, Ryegrass, Italian [14]: 0; Ryegrass, Italian plant response rating (0 to 100 scale, 0 is no effect, 100 is complete control) [14]: 0; Plant response rating, Foxtail, Giant [15]: 80; Foxtail, Giant plant response rating (0 to 100 scale, 0 is no effect, 100 is complete control) [15]: 90; Plant response rating, Ducksalad [16]: 85; Plant response rating, Rice (rice (Oryra sativa)): 0; Plant response rating, Barnyardgrass [17]: 40; Plant response rating, Sedge, Umbrella [18]: 0 |
| Cc1c(F)ccc(NC(=O)C2C(=O)NCC2c2cccc(C(F)(F)F)c2)c1F (stereo not drawn) [Compound 463] | 0 | 0 | 0 | 0 | 0 | 0 | 0 | 0 | 0 | 0 | 50 | 70 | 0 | 30 | 70 | 70 | 0 | 0 | 20 | 70 | Plant response rating, Pigweed [10]: 0; Pigweed plant response rating (0 to 100 scale, 0 is no effect, 100 is complete control) [10]: 0; Plant response rating, Kochia (Kochia (Kochia scoparia) [11]): 0; Kochia plant response rating (0 to 100 scale, 0 is no effect, 100 is complete control) (Kochia (Kochia scoparia) [11]): 0; Plant response rating, Ragweed [12]: 0; Ragweed plant response rating (0 to 100 scale, 0 is no effect, 100 is complete control) [12]: 0; Plant response rating, Barnyardgrass [13]: 50; Barnyardgrass plant response rating (0 to 100 scale, 0 is no effect, 100 is complete control) [13]: 80; Plant response rating, Ryegrass, Italian [14]: 0; Ryegrass, Italian plant response rating (0 to 100 scale, 0 is no effect, 100 is complete control) [14]: 20; Plant response rating, Foxtail, Giant [15]: 80; Foxtail, Giant plant response rating (0 to 100 scale, 0 is no effect, 100 is complete control) [15]: 90; Plant response rating, Ducksalad [16]: 70; Plant response rating, Rice (rice (Oryra sativa)): 0; Plant response rating, Barnyardgrass [17]: 25; Plant response rating, Sedge, Umbrella [18]: 0 |
